Results on three compounds are retold here after patent publication US20240287123A1 (Victoria Link Limited, priority 2021, published 2024).

Data set [1] in a line: Cytotoxicity in Akata cells (CTG), concurrent with EBV assay. The format is cell-based. The following applies: human, Akata cells (without virus induction), Table 1. The procedure:
(§1) Each experiment that evaluates the antiviral activity of compounds includes both positive and negative control compounds to ensure the performance of each assay. Concurrent assessment of cytotoxicity was also performed for each study in the same cell line and with the same compound exposure.
Assays for EBV were performed by reported methods.^37 Akata cells were induced to undergo a lytic infection with 50 μg/ml of a goat anti-human IgG antibody. Experimental compounds were diluted within plates. The cells were added and incubated for 72 h. Similar plates were initiated without virus induction/addition and used for measuring cytotoxicity by the addition of CTG. For all assays, the replication of the virus was assessed by the quantification of viral DNA. […] Compound concentrations sufficient to reduce genome copy number by 50% were calculated from experimental data as well as compound cytotoxicity.

Data set [2] concerns HCMV (AD169 strain in HFF cells). Put plainly: CPE (cytopathic effect) assay for HCMV. The format is cell-based, Human Cytomegalovirus. As for the experimental part:
(§2) Human foreskin fibroblast (HFF) cells prepared from human foreskin tissue were obtained from the University of Alabama at Birmingham tissue procurement facility with approval from its IRB. The tissue was incubated at 4° C. for 4 h in Clinical Medium consisting of minimum essential media (MEM) with Earl's salts supplemented with 10% fetal bovine serum (FBS) (Hyclone, Inc. Logan UT), L-glutamine, fungizone, and vancomycin. Tissue was then placed in phosphate buffered saline (PBS), minced, rinsed to remove the red blood cells, and resuspended in trypsin/EDTA solution. The tissue suspension was incubated at 37° C. and gently agitated to disperse the cells, which were collected by centrifugation. Cells were resuspended in 4 ml Clinical Medium and placed in a 25 cm^2 flask and incubated at 37° C. in a humidified CO2 incubator for 24 h. The media was then replaced with fresh Clinical Medium and the cell growth was monitored daily until a confluent monolayer had formed. The HFF cells were then expanded through serial passages in standard growth medium of MEM with Earl's salts supplemented with 10% FBS, L-glutamine, penicillin, and gentamycin.
(§3) Akata cells were obtained from Louisiana State University, Baton Rouge, LA. The HCMV strain AD169 was obtained from the American Type Culture Collection (ATCC, Manassas, VA). Akata cells latently infected with EBV were obtained from Louisiana State University, Baton Rouge, LA.
as §1
Assays were performed in monolayers as described.37 Cells were seeded in 384 well plates and incubated for 24 h to allow the formation of confluent monolayers. Dilutions of test drug were prepared directly in the plates and the monolayers infected at a predetermined MOI based on virus used. After incubation, cytopathology was determined by the addition of CellTiter-Glo (CTG) reagent. […] Toxicity was measured using CTG as above.

The subject of a further data set is EBV (Akata/Akata). The data set can be described thus: EBV assay: viral DNA quantification in induced Akata cells. To be noted: for activity against EBV: cell-based assay, highest concentration tested in primary assays 50 μM; for EC50: human gammaherpesvirus 4, Akata. The format is cell-based, Epstein-Barr virus. As for the experimental part:
as §3, §1
Assays for EBV were performed by reported methods.^37 Akata cells were induced to undergo a lytic infection with 50 μg/ml of a goat anti-human IgG antibody. Experimental compounds were diluted within plates. The cells were added and incubated for 72 h. Similar plates were initiated without virus induction/addition and used for measuring cytotoxicity by the addition of CTG. For all assays, the replication of the virus was assessed by the quantification of viral DNA. For EBV, primers 5′-[…]-3′ and 5′-CAG TTC CTC GCCTTAGGTTG-3 amplified a fragment corresponding to coordinates 96802-97234 in EBV genome (AJ507799). Compound concentrations sufficient to reduce genome copy number by 50% were calculated from experimental data as well as compound cytotoxicity.

Data set [3] can be described thus: Cytotoxicity in HFF cells (CellTiter-Glo), concurrent with HCMV assay. The format is cell-based. The following applies: human. As for the experimental part: as §2, with “gentamycin. The cells were passaged routinely and used for assays at or below passage ^10.37,38” for “gentamycin.”
as §1
Assays were performed in monolayers as described.37 Cells were seeded in 384 well plates and incubated for 24 h to allow the formation of confluent monolayers. Dilutions of test drug were prepared directly in the plates and the monolayers infected at a predetermined MOI based on virus used. After incubation, cytopathology was determined by the addition of CellTiter-Glo (CTG) reagent. Concentrations of test compound sufficient to reduce CPE by 50% (EC50) or decrease cell viability by 50% (CC50) were interpolated using standard methods in Microsoft Excel. Toxicity was measured using CTG as above.

Another data set relates to Zika virus. The following applies: Vero cells, 1 mM; cited from earlier work.
For a further data set, the system named is HIVADA. The data set can be described thus: HIV p24 alphaLISA in infected monocyte derived macrophages. The format is cell-based, Human Immunodeficiency Virus. To be noted: 100 μM, infected MDM, days 2-7, compared with DMSO control. The procedure:
Primary human MDMs were cultured from peripheral blood mononuclear cells and pre-treated for 24 h with ddhC (100 μM), compound 8 (100 μM), compound 21 (100 μM), emtricitabine control (15 μM, 10 μM, 1 μM, 0.1 μM), or the drug vehicle, DMSO. MDM were then infected with HIVADA in the presence of these compounds and treated daily (with compound), while culture supernatants were collected to quantify levels of HIV p24, a viral capsid protein, on days 2-7 of infection.
Leukopaks from healthy donors were obtained from the New York Blood Center and processed by Ficoll gradient centrifugation to isolate peripheral blood mononuclear cells (PBMC). These PBMC were cultured adherently into monocyte derived macrophages (MDM), according to published protocols, on 60 mm dishes for 6 days with 10-20 ng/ml macrophage colony stimulating factor (M-CSF). MDM were pre-treated with ddhC, compound 8, compound 21, emtricitabine (Cat. No .: 10071), or DMSO vehicle at indicated concentrations for 24 hours (NIH AIDS Reagent Program, Bethesda, MD). Cells were left uninfected or infected for 24 h in the presence of one of the compounds listed above with 20 ng/mL HIVADA, a macrophage-tropic HIV strain originally derived from a person with HIV (NIH). Media was changed daily with the mentioned compounds added each time, and supernatants were collected on days 2, 3, 4, 5, 6, and 7 of infection. Each treatment condition was analyzed in duplicate plates per experiment.
Supernatant samples were analyzed for the viral capsid protein, HIV p24, by a sensitive p24 alphaLISA according to the manufacturer's protocol (Perkin-Elmer, Waltham, MA). Treatment conditions were analyzed in duplicate plates, and each supernatant was analyzed in duplicate on a 96-well alphaLISA plate. These were then fit to a sigmoid standard curve to extrapolate HIV p24 levels in pg/mL within the assay limits of detection.
Background: In Alpha technology, singlet oxygen from a donor bead excites a nearby acceptor bead.

Where [4] appears, read: Human betaherpesvirus 5, AD169 strain in HFF cells, Table 1, read-out: HCMV EC50.
The mark [5] stands for this setting: Akata/Akata, Table 1, read-out: EBV EC50.
Setting [6] is: read-out: Result for compound (EC50/UM), EBV Akata/Akata, assay order Primary.

The structures appear in SMILES notation. “Also recorded” adds a separate entry of the source. Read-outs that look alike come from different tables or passages of the source.

By CC50 is commonly meant the concentration that lowers cell viability or growth by half. `CC(C)C(=O)OCC1=C[C@@H](O)[C@H](n2ccc(NO)nc2=O)O1` [Compound 10, 3′-Deoxy-3′,4′-didehydro-4-N-hydroxy-5′-O-isobutyroyl-cytidine]: the CC50 at 72 h in data set [1] is greater than 50 µM. The EC50 in data set [2] (Human betaherpesvirus 5, AD169, HFF, approximate, read-out: EC50 against HCMV) is roughly 0.03 µM; in data set [2] (setting [4]) it was 0.03 µM; in the data set with EBV (Akata/Akata) (setting [5]) it was 29.9 µM; with EBV (Akata/Akata) (setting [6]), 29.9 µM; in the data set with EBV (Akata/Akata) (read-out: EC50 against EBV) it was 7.6 to 38.7 µM. Further, the “activity against EBV” value with EBV (Akata/Akata) is reported as “slightly diminishes the activity”. In data set [3], the CC50 was greater than 50 µM.
The compound `Nc1ccn([C@@H]2OC(CO)=C[C@H]2O)c(=O)n1` [ddhC, 3′-Deoxy-3′,4′-didehydro-cytidine, reference compound] showed a CC50 at 72 h in data set [1] greater than 50 µM. Besides, the Zika virus proliferation result in the data set with Zika virus is given as “reduce Zika virus proliferation”. The “antiviral activity against HCMV” value in data set [2] is “does not display antiviral activity”. In addition, the EC50 in data set [2] (setting [4]) is greater than 50 µM; with EBV (Akata/Akata) (setting [5]), 38.7 µM; in the data set on EBV (Akata/Akata) (setting [6]) it was 38.7 µM; in the data set with EBV (Akata/Akata) (read-out: EC50 against EBV) it was 7.6 to 38.7 µM. The “activity against EBV” value in the data set on EBV (Akata/Akata) was “five-fold less active than compound 8; also recorded: only weakly inhibited”. This compound also showed a CC50 in data set [3] greater than 50 µM. Besides, the “levels of HIV p24 viral capsid protein” value in the data set with HIVADA is reported as “no reduction”.
With `Nc1nc(O)c2ncn(COC(CO)CO)c2n1` [Ganciclovir, ganciclovir, reference compound], the EC50 in data set [2] (Human betaherpesvirus 5, AD169, HFF, read-out: HCMV EC50) was determined as 0.55 µM. Further, the CC50 in data set [3] (HFF cells, Table 1, read-out: HCMV CC50) was greater than 150 µM.
